Experiments:
[1] = test system: wild oat; test: Test E wild oat; type: in vivo, Avena fatua; settings: Preemergence; for Plant response rating, Wild oat: 0 to 100 scale where 0 is no effect and 100 is complete control
[2] = test system: Italian ryegrass; test: Test E Italian ryegrass; type: in vivo, Lolium multiflorum; settings: Preemergence; for Plant response rating, I. Ryegrass: 0 to 100 scale where 0 is no effect and 100 is complete control
[3] = test system: sugar beet; test: Test B pre/postemergence sugar beet; type: in vivo, Beta vulgaris
Outline: (§1)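 Herbicidal effect was estimated by eye on a ten-point control scale after plants spent twelve to sixteen days in a greenhouse following soil or foliar treatment. Foliar sprays targeted plants at one to four leaves; all doses were formulated in a non-phytotoxic solvent with surfactant.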

[4] = test system: winter wheat; test: Test E winter wheat; type: in vivo, Triticum aestivum; settings: Preemergence; for Plant response rating, Wheat (winter): 0 to 100 scale where 0 is no effect and 100 is complete control
[5] = test system: green foxtail; test: Test E green foxtail; type: in vivo, Setaria viridis; settings: Preemergence; for Plant response rating, Green foxtail: 0 to 100 scale where 0 is no effect and 100 is complete control
[6] = test system: blackgrass; test: Test E blackgrass; type: in vivo, Alopecurus myosuroides; settings: Preemergence; for Plant response rating, Blackgrass: 0 to 100 scale where 0 is no effect and 100 is complete control
[7] = test system: winter barley; test: Test E winter barley; type: in vivo, Hordeum vulgare; settings: Preemergence; for Plant response rating, Barley (winter): 0 to 100 scale where 0 is no effect and 100 is complete control
[8] = test system: cocklebur; test: Test B pre/postemergence cocklebur; type: in vivo, Xanthium strumarium
Outline: as §1

[9] = test system: winter wheat; test: Test E winter wheat; type: in vivo, Triticum aestivum; settings: Postemergence, 0 to 100 scale
Method: […] All plant species were grown using normal greenhouse practices. Crop and weed species include annual bluegrass (Poa annua), blackgrass (Alopecurus myosuroides), black nightshade (Solanum nigra), chickweed (Stellaria media), common poppy (Papaver rhoeas), deadnettle (Lamium amplexicaule), downy brome (Bromus tectorum), field violet (Viola arvensis), galium (Galium aparine), green foxtail (Setaria viridis), Italian ryegrass (Lolium multiflorum), jointed goatgrass (Aegilops cylindrica), kochia (Kochia scoparia), lambsquarters (Chenopodium album), littleseed canarygrass (Phalaris minor), rape (Brassica napus), redroot pigweed (Amaranthus retroflexus), Russian thistle (Salsola kali), scentless chamomile (Matricaria inodora), spring barley (Hordeum vulgare), sugar beet (Beta vulgaris), sunflower (Helianthus annuus), ivyleaf speedwell (Veronica hederaefolia), spring wheat (Triticum aestivum), winter wheat (Triticum aestivum), wild buckwheat (Polygonum convolvulus), wild mustard (Sinapis arvensis), wild oat (Avena fatua), windgrass (Apera spica-venti) and winter barley (Hordeum vulgare).
Treated plants and untreated controls were maintained in a greenhouse for approximately 21 to 28 days, after which all treated plants were compared to untreated controls and visually evaluated. […] A dash response (-) means no test result.

[10] = test system: smallflower flatsedge; test: Test B flood test smallflower flatsedge; type: in vivo, Cyperus difformis; settings: for S. Flatsedge plant response rating: scale of 0 to 10 where 0 is no effect and 10 is complete control
Outline: (§2)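 Each value is a visual injury score relative to controls, with 10 meaning complete control and 0 no effect. Evaluation took place twelve to sixteen days after the 2-leaf-stage plants were treated and kept in the greenhouse.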

[11] = test system: bamyardgrass; test: Test B flood test barnyardgrass; type: in vivo, Echinochloa crus-galli; settings: for Plant response rating, Barnyardgrass: scale 0 to 10, 0 is no effect, 10 is complete control; for Barnyardgrass plant response rating: scale of 0 to 10 where 0 is no effect and 10 is complete control
Outline: as §2

[12] = Postemergence, Rate 125 g/ha, scale of 0 to 10 where 0 is no effect and 10 is complete control
[13] = Preemergence, Rate 62 g/ha, scale of 0 to 10 where 0 is no effect and 10 is complete control
[14] = Preemergence, Rate 125 g/ha, 0 is no effect, 10 is complete control
[15] = Preemergence, Rate 250 g/ha, scale 0 to 10, 0 is no effect, 10 is complete control
[16] = Preemergence, Rate 500 g/ha, scale 0 to 10 (0 no effect, 10 complete control)
[17] = Rate 62 g/ha, Postemergence, scale of 0 to 10 where 0 is no effect and 10 is complete control
[18] = Rate 250 g/ha, Postemergence, scale 0 to 10, 0 is no effect, 10 is complete control
[19] = Rate 500 g/ha, Postemergence, scale 0 to 10
[20] = Postemergence, Rate 250 g/ha, scale 0 to 10, 0 is no effect, 10 is complete control
[21] = Postemergence, Rate 500 g/ha, scale of 0 to 10 where 0 is no effect and 10 is complete control
[22] = Preemergence, Rate 62 g/ha, scale 0 to 10 (0 no effect, 10 complete control)
[23] = Preemergence, Rate 125 g/ha, scale of 0 to 10 where 0 is no effect and 10 is complete control
[24] = Preemergence, Rate 500 g/ha, scale 0 to 10, 0 is no effect, 10 is complete control
[25] = Postemergence section (flood test species), Rate 500 g/ha
[26] = Rate 62 g/ha, Postemergence (flood test species)

`CC(C)N(C(=O)n1oc(=O)n([C@@H](C)c2ccccc2)c1=O)c1ccc(Cl)cc1` [Compound 174] was tested, and the “Wild oat plant response rating (0 to 100 scale)” value ([1]; Rate 250 g/ha) was 50, the “Plant response rating, Wild oat” value ([1]; Rate 500 g/ha) was 40 and the “Plant response rating, Wild oat” value ([1]; Rate 1000 g/ha) was 50. The “I. Ryegrass plant response rating (0 to 100 scale)” value ([2]; Rate 250 g/ha) was 0, the “Plant response rating, I. Ryegrass” value ([2]; Rate 500 g/ha) was 20 and the “Plant response rating, I. Ryegrass” value ([2]; Rate 1000 g/ha) was 40. The “Sugarbeets plant response rating” value [3, 12] was 0, the “Sugarbeets plant response rating” value [3, 13] was 3 and the “Sugarbeets plant response rating (0 to 10 scale)” value [3, 14] was 3. For the same molecule, the “Sugarbeets plant response rating” value [3, 15] was 6, the “Sugarbeets plant response rating” value [3, 16] was 6 and the “Sugarbeets plant response rating” value [3, 17] was 0. For the same molecule, the “Plant response rating, Sugarbeets” value [3, 18] was 6, the “Sugarbeets plant response rating” value [3, 19] was 6 and the “Wheat (winter) plant response rating (0 to 100 scale)” value ([4]; Rate 250 g/ha) was 60. For the same molecule, the “Plant response rating, Wheat (winter)” value ([4]; Rate 500 g/ha) was 50, the “Plant response rating, Wheat (winter)” value ([4]; Rate 1000 g/ha) was 40 and the “Green foxtail plant response rating (0 to 100 scale)” value ([5]; Rate 250 g/ha) was 30. The “Plant response rating, Green foxtail” value ([5]; Rate 500 g/ha) was 50, the “Plant response rating, Green foxtail” value ([5]; Rate 1000 g/ha) was 85 and the “Blackgrass plant response rating (0 to 100 scale)” value ([6]; Rate 250 g/ha) was 30. For the same molecule, the “Plant response rating, Blackgrass” value ([6]; Rate 500 g/ha) was 50, the “Plant response rating, Blackgrass” value ([6]; Rate 1000 g/ha) was 55 and the “Barley (winter) plant response rating (0 to 100 scale)” value ([7]; Rate 250 g/ha) was 0. The “Plant response rating, Barley (winter)” value ([7]; Rate 500 g/ha) was 0, the “Plant response rating, Barley (winter)” value ([7]; Rate 1000 g/ha) was 10 and the “Cocklebur plant response rating” value [8, 12] was 1. The “Cocklebur plant response rating” value [8, 13] was 0, the “Cocklebur plant response rating (0 to 10 scale)” value [8, 14] was 0 and the “Cocklebur plant response rating” value [8, 15] was 0. For the same molecule, the “Cocklebur plant response rating” value [8, 16] was 0, the “Cocklebur plant response rating” value [8, 17] was 0 and the “Plant response rating, Cocklebur” value [8, 18] was 2. The “Cocklebur plant response rating” value [8, 19] was 3, the “Plant response rating, Wheat (winter)” value ([9]; Rate 1000 g/ha, 0 is no effect and 100 is complete control) was 50 and the “Plant response rating, Wheat (winter)” value ([9]; Rate 500 g/ha, 0 is no effect, 100 is complete control) was 40.
With `CC(=O)C(C)n1c(=O)on(C(=O)N(c2ccc(F)cc2)C(C)C)c1=O` (stereo not shown) [Compound 400] the “Plant response rating, Sugarbeets” value [3, 20] was 0, the “Sugarbeets plant response rating” value [3, 21] was 0 and the “Plant response rating, Sugarbeets” value [3, 22] was 0. For the same molecule, the “Plant response rating, Sugarbeets” value [3, 23] was 0, the “Sugarbeets plant response rating” value [3, 15] was 2 and the “Sugarbeets plant response rating” value [3, 24] was 4. For the same molecule, the “Sugarbeets plant response rating” value [3, 17] was 0, the “S. Flatsedge plant response rating” value [10, 25] was 0 and the “S. Flatsedge plant response rating” value [10, 26] was 0. For the same molecule, the “Plant response rating, S. Flatsedge” value ([10]; flood test species, listed under Postemergence, Rate 250 g/ha, scale 0 to 10, 0 is no effect, 10 is complete control) was 0, the “Plant response rating, Cocklebur” value ([8]; Postemergence, Rate 125 g/ha, scale 0 to 10, 0 is no effect, 10 is complete control) was 0 and the “Plant response rating, Cocklebur” value [8, 20] was 0. For the same molecule, the “Cocklebur plant response rating” value [8, 21] was 0, the “Plant response rating, Cocklebur” value [8, 22] was 0 and the “Plant response rating, Cocklebur” value [8, 23] was 0. For the same molecule, the “Cocklebur plant response rating” value [8, 15] was 0, the “Cocklebur plant response rating” value [8, 24] was 0 and the “Cocklebur plant response rating” value [8, 17] was 0. The “Plant response rating, Barnyardgrass” value ([11]; Postemergence (flood test), Rate 125 g/ha) was 0, the “Barnyardgrass plant response rating” value [11, 25] was 0 and the “Barnyardgrass plant response rating” value [11, 26] was 0. The “Plant response rating, Barnyardgrass” value ([11]; flood test species, listed under Postemergence, Rate 250 g/ha) was 0.
